The results in this text go back to ChEMBL document CHEMBL4321795, “Metabolism by Aldehyde Oxidase: Drug Design and Complementary Approaches to Challenges in Drug Discovery” (J Med Chem, 2019).

The target of data set [1] is T1, Aldehyde oxidase 1 (Rattus norvegicus, UniProt Q9Z0U5).
T1 sequence (Q9Z0U5 whole entry): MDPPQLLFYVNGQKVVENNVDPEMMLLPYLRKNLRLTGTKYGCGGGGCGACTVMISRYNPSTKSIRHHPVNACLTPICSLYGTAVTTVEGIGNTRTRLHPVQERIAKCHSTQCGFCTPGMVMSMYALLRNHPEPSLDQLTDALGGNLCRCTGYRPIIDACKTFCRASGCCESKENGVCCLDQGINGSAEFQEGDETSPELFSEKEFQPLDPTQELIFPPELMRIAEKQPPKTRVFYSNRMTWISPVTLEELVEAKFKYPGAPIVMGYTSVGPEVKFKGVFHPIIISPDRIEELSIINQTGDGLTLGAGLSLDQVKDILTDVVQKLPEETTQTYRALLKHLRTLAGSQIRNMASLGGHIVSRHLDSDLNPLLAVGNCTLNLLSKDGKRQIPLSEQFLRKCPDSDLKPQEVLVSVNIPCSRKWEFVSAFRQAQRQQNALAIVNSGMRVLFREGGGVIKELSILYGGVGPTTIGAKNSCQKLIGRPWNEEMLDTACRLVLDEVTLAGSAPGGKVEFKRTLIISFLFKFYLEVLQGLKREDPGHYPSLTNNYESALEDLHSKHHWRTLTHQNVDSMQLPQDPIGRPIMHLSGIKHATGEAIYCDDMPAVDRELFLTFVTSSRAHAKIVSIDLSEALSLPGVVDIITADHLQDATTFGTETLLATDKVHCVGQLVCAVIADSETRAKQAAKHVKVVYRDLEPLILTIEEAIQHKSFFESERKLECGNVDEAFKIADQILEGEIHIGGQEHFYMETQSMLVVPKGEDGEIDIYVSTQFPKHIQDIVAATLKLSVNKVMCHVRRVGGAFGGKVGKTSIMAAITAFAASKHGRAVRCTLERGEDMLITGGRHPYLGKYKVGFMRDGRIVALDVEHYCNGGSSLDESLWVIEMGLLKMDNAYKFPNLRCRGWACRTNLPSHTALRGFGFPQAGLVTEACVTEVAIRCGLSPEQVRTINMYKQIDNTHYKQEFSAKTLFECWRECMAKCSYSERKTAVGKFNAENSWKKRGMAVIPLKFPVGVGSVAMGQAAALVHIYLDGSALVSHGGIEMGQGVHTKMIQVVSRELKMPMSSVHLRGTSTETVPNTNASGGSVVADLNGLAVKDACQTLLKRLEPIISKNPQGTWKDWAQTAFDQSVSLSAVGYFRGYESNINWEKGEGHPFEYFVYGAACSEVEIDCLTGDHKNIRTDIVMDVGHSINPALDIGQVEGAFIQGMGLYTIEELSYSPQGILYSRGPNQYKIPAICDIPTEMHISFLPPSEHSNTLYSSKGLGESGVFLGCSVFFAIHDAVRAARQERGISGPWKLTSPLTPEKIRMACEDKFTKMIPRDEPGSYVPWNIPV
Nature of the data set: Substrate activity at aldehyde oxidase in rat liver cytosol assessed as enzyme-mediated drug uptake by mass spectrophotometric analysis. The class given is ADME, subcellular.

Data set [2] addresses T2, Aldehyde oxidase 1 (Cavia porcellus, UniProt H9TB17).
T2 sequence (H9TB17 whole entry): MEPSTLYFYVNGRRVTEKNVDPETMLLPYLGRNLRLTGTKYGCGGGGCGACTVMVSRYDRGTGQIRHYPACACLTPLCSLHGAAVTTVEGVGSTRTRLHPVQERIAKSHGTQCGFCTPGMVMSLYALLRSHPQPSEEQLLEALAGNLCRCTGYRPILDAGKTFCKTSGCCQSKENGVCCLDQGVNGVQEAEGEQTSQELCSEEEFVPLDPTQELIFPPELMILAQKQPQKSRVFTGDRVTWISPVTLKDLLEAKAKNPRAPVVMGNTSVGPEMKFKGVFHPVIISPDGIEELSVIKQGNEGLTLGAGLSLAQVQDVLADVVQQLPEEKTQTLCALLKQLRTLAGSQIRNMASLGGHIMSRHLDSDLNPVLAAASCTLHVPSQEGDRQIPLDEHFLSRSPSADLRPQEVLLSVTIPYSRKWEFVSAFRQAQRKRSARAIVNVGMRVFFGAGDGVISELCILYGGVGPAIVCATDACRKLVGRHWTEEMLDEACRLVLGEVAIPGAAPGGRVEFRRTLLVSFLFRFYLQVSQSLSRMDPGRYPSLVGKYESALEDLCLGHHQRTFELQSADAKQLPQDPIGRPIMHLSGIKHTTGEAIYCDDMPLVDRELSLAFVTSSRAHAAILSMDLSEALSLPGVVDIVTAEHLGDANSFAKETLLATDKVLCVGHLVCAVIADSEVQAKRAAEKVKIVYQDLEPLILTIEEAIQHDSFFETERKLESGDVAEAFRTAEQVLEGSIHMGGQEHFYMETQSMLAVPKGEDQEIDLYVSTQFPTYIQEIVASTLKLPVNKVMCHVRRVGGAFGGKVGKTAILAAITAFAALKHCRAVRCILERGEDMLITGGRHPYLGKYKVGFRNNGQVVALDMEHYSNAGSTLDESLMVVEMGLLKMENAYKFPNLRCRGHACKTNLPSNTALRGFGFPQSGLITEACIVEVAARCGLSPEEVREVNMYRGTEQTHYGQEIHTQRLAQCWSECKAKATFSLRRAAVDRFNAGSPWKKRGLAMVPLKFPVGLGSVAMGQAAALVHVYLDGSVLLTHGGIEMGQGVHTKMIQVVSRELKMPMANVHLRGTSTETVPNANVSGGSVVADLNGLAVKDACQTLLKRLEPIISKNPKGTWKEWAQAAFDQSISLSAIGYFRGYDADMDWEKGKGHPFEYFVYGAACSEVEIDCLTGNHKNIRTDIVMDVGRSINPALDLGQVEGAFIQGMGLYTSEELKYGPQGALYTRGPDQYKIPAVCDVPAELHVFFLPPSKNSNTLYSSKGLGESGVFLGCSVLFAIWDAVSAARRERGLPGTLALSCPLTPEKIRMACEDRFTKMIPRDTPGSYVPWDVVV
Nature of the data set: Substrate activity at aldehyde oxidase in guinea pig liver cytosol assessed as enzyme-mediated drug uptake by mass spectrophotometric analysis. The class given is ADME, subcellular.

In data set [3] the target is T3, Aldehyde oxidase (Homo sapiens, UniProt Q06278).
T3 sequence (Q06278 whole entry): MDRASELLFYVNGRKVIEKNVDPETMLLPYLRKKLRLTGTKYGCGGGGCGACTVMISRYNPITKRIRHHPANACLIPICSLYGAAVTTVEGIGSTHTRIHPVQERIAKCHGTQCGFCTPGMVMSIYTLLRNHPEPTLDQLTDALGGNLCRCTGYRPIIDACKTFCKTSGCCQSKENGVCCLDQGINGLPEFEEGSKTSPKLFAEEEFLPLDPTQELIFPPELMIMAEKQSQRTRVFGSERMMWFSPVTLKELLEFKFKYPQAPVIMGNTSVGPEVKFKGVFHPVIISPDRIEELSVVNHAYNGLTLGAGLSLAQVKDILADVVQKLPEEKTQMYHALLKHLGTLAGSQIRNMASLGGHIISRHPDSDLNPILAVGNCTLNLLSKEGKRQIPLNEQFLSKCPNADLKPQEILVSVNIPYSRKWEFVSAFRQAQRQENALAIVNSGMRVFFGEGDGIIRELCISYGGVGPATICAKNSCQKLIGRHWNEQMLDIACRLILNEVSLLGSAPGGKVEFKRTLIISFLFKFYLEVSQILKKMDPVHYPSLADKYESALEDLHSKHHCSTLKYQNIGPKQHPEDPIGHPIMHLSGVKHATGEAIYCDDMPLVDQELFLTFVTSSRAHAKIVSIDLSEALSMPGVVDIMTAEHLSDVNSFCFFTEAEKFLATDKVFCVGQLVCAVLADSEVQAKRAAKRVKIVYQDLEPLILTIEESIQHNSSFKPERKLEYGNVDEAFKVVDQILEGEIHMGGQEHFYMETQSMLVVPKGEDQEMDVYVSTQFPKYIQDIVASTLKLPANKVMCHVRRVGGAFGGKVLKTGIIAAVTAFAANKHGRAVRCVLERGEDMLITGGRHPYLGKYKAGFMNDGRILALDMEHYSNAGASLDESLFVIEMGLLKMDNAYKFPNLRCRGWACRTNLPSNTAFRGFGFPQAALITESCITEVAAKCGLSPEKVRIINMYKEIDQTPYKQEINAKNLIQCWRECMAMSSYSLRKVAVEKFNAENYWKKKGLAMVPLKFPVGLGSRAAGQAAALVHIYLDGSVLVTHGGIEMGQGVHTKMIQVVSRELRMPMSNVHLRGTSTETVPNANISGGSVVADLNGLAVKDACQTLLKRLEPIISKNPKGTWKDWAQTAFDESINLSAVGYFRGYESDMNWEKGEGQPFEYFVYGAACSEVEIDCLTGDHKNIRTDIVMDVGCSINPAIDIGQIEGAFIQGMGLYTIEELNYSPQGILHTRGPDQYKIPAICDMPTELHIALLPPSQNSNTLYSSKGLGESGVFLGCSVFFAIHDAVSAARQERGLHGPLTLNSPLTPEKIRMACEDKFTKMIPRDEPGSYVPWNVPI
The data set can be described thus: Substrate activity at aldehyde oxidase in human liver cytosol assessed as enzyme-mediated drug uptake by mass spectrophotometric analysis. The class given is ADME, subcellular.

The nature of data set [4]: Drug level in human plasma treated with imrecoxib at 100 mg, po measured up to 96 hrs by UPLC/Q-TOF MS analysis. The class given is ADME, organism-based. The note with it: in vivo.
Data set [5] has as its target T3, Aldehyde oxidase. The data set can be described thus: Substrate activity at aldehyde oxidase in human liver cytosol assessed as enzyme-mediated drug uptake at 1 uM. The class given is ADME, subcellular.
The target in data set [6] is T1, Aldehyde oxidase 1. The data set can be described thus: Substrate activity at aldehyde oxidase in rat liver cytosol assessed as enzyme-mediated drug uptake at 1 uM. It is filed as ADME, subcellular.
In data set [7] the target is T2, Aldehyde oxidase 1. The data set can be described thus: Substrate activity at aldehyde oxidase in guinea pig liver cytosol assessed as enzyme-mediated drug uptake at 1 uM. The class given is ADME, subcellular.
Data set [8] has as its target T3, Aldehyde oxidase. Nature of the data set: Substrate activity at aldehyde oxidase in human hepatocytes assessed as enzyme-mediated drug uptake at 1 uM. It is filed as ADME, cell-based.
The nature of data set [9]: Clearance in human plasma. It is filed as ADME, cell-free.
Data set [10] deals with T3, Aldehyde oxidase. Nature of the data set: Substrate activity at aldehyde oxidase in human liver S9 fractions assessed as enzyme-mediated 2-oxo metabolite formation by measuring half life at 1 uM after 10 to 120 mins by liquid chromatography-tandem mass spectrometry. The class given is ADME, subcellular. As to conditions: s9, 1 µM.

For the molecule `c1ccc2cnncc2c1` [PHTHALAZINE], the K in [1], in [2] and in data set [3] was 4.7 to 5.1 in each case.
Regarding `c1ccc2nccnc2c1` [QUINOXALINE], the K in data set [1], in [2] and in [3] was 4.7 to 5.1 each time.
In turn, `CCCN1CC(c2ccc(S(C)(=O)=O)cc2)=C(c2ccc(C(=O)O)cc2)C1=O` came in with a Drug uptake in data set [4] of 68%.
In the case of `c1ccc2ncccc2c1` [QUINOLINE], the K in data set [5], in data set [6] and in data set [7] was 3.6 to 6.1 throughout.
In the case of `CCNC(=O)OC1CCN(c2nncc3cc(OC)c(OC)cc23)CC1` [CARBAZERAN], the K in data set [5] is 3.6 to 6.1; in [8], 1.5; in data set [6], 3.6 to 6.1; in data set [7], 3.6 to 6.1.
The molecule `Cn1cc(-c2ccc3nnc(C(F)(F)c4ccc5ncccc5c4)n3n2)cn1` [JNJ-38877605] registered a clearance in data set [9] of 12 mL/min/kg.
As for `N=C(N)NC(=O)c1cnn(-c2ccc3ncccc3c2)c1C1CC1`, in [10], the t1/2 is on record as under 5 min.
